Data from patent US9487561B2, “Biologically active complex and its preparation” (HAMLET PHARMA AB, priority 2010, dated 2016).
Entries after “also recorded” stand apart in the source; their conditions may differ.

How the values were obtained:
[1] = test system: potassium channels in A549, lung carcinoma cell lines; experiment: FLUXOR potassium (K^+) channel assay, Thallium (Tl^+) indicator; type: cell-based, human; settings: HAMLET 35 μM; for effect of channel blocker on K^+ flux in response to HAMLET: carcinoma cells, 30 minutes pretreatment; for potassium channel activity (fluorescence signal): oleate 175 μM (5× the HAMLET concentration), peptides mixed with oleate and immediately added
Method: (§1) The FLUXOR™ potassium (K^+) channel assay was performed on the TECAN infinite F200 (Tecan Group, Switzerland), according to the manufacturer's instructions (Invitrogen). Briefly, this involved FLUXOR™ loading buffer (Hank's Balanced Saline Solution, (HBSS) buffered with 20 mM HEPES and pH adjusted to 7.4 with NaOH. POWERLOAD™ concentrate and water-soluble Probenecid were used respectively to enhance the dye solubility and retention, respectively. Media were removed from the cell plates manually, and 80 μL of loading buffer containing the FLUXOR™ dye mix was applied to each well. Once inside the cell, the nonfluorescent AM ester form of the FLUXOR™ dye is cleaved by endogenous esterases into a thallium-sensitive indicator. The dye was loaded for 60 minutes at room temperature and then removed with the supernatant. After washing with dye-free PBS buffer, a final volume of 80 μL assay buffer containing water-soluble probenecid was added. Cells received one of the following channel inhibitors: 3.3 μL per well of 30 mM amiloride, 3.0 μL of 32 mM BaCl2, 1.8 μL of 5.4 mM gadolinium, 3 μL 3.2 mM tetrandrine and 2.3 μL of 2.6 mM ruthenium red, and were then incubated at room temperature (23-25° C.) for 30 minutes to allow equilibration of the test compounds. Prior to injection, stimulation buffer was prepared from the chloride-free buffer and thallium reagents provided in the kit as well as HAMLET, to achieve a final added concentrations of 2 mM free Tl+ and 35 μM HAMLET after 1:5 dilution upon injection of the stimulus buffer onto cells that had been loaded with FLUXOR™ dye.
To distinguish Ca^2+ mobilization from intracellular stores from the influx of extracellular Ca^2+, EGTA was then added to the cell medium. […] K^+ fluxes across tumor cell membranes were subsequently quantified under the same experimental conditions, using the fluorophore FLUXOR™, which fluoresces after thallium has entered cells through K^+ channels.
Potassium channel activity was therefore measured in A549, lung carcinoma cell lines using an indicator, which emits fluorescence signal upon entering the cells via opened potassium channels, Thallium (Tl^+) indicator (FIG. 18).

[2] = test system: lung carcinoma, kidney carcinoma and lymphoma cells; experiment: HAMLET-induced change in cell morphology (light microscopy, real-time imaging); type: cell-based; settings: light microscopy
Method: (§2) Cells were detached from cell culture flasks with versen (0.2 g EDTA in 200 ml H2O and 800 ml PBS), washed with PBS and resuspended in serum-free RPMI-1640. HAMLET dissolved in PBS was incubated with cells (0.5×10^6/ml for A549, A498 and HeLa cells; 1×10^6/ml for Jurkat) at 37° C. FCS was added after 1 hour. Cell death was quantified by trypan blue exclusion (Chroma Gesellschaft Schmid & Co) or by measuring ATP levels (ATPlite Kit, PerkinElmer, Infinite 200, Tecan). Light images were captured using the HOLOMONITOR™ M2 digital holographic microscope (Phase Holographic Imaging AB, Lund, Sweden).
For live cell imaging, cells were pre-treated with SB202190 for 30 minutes, nuclei were stained with Hoechst 33342 (Invitrogen) and Alexa-Fluor 568-labeled HAMLET (10% labeled HAMLET, Molecular Probes) was added in serum-free medium. FCS was added after 1 hour. Fluorescence was detected with pinhole settings corresponding to 1 airy unit. The cells were kept at 37° C., 5% CO2 and examined unfixed by LSM510 DUO confocal microscopy (Carl Zeiss).
To examine if the HAMLET-induced change in carcinoma cell morphology was modified by the channel inhibitors, lung carcinoma, kidney carcinoma and lymphoma cells were exposed to HAMLET in the presence or absence of ion channel inhibitors and examined by light microscopy (FIG. 2C).
To determine if p38 signaling was involved in cell death, we inhibited p38α and p38β in lung and kidney carcinoma and Jurkat lymphoma cells with two small-molecule p38 inhibitors: SB202190, a highly specific pyridinyl-imidazole inhibitor; and BIRB796, a diaryl urea compound, which bears little structural similarity to SB202190 (Fabian et al., 2005, Nature Biotechnology 23: 329-336), ([…] and FIG. 12B). […] The effect of p38 inhibition on cell death was also observed by real-time confocal imaging of lung carcinoma cells exposed to fluorescently labeled HAMLET.

tumor cells = experiment: ion fluxes (Ca^2+, K^+, Na^+) quantified by fluorometry; type: cell-based; settings: for effect of inhibitor on HAMLET Ca^2+ fluxes: FIG. 1B
Method: FIG. 1. […] (A, upper panels) Bright-field micrographs showing glass-adherent egg yolk vesicles before and after a 40-minute exposure to HAMLET, α-lactalbumin (HLA) or oleic acid (OA). Morphology was recorded by differential interference contrast microscopy. Scale bar […]. […] (A, lower panels) Effect of HAMLET on PMVs from lung carcinoma cells. PMVs on glass-bottom dishes were exposed to HAMLET, HLA or OA and stained with Nile red for confocal microscopy. […] As a control PMVs from healthy, differentiated cells on glass-bottom dishes were also exposed to HAMLET and stained with Nile red.
FIG. 7. Ion Fluxes. (A) Ion fluxes induced by HAMLET (35 μM) or it constituents (35 μM All-ala α-lactalbumin or 175 μM sodium oleate) were quantified by fluorometry, as described. […] (B) The global transcriptional response to HAMLET was studied by microarray and the top 3000 genes by variance visualized in a Heatmap. […] Darker bands=high expression, lighter bands=low.
as §1

[3] = test system: lymphoma cells (Jurkat cells); experiment: cell death assay with inhibitors; type: cell-based; settings: HAMLET 21-35 μM, three hours
Method: GAPDH was used as a loading control.
as §2
For studies with inhibitors, cells were pretreated for 30 minutes. Inhibitors used were Gadolinium chloride (GdCl3, 100 μM), Barium chloride (BaCl2, 1 mM), Ruthenium red (30 μM), tetrandrine (10 μM) and amiloride (1 mM), all from Sigma Aldrich. For p38 inhibition, SB202190 (20 μM, Sigma Aldrich) or BIRB796 (10 μM, Axon Medchem) dissolved in DMSO was used. The wells were washed twice with PBS and new medium with inhibitor was added. For RNA interference, FlexiTube siRNA Premixes against MAPK11 (SI00606053), MAPK14 (SI00300769) and All Star Negative Control siRNA (SI03650318) from Qiagen was used. A549 forward was transfected using 25 nM final siRNA concentration in 24-well plate. After 48 hours, knockdown was examined by Western blot (anti-p38, 1:1000, Cell Signaling) and RT-PCR (MAPK14, QT00079345, QIAGEN).
To examine if functional ion channels are important for the tumoricidal activity of HAMLET, A549 lung carcinoma cells in suspension were pretreated with the channel inhibitors for 30 minutes and exposed to increasing concentrations of HAMLET for three hours.

[4] = test system: A549 lung carcinoma cells; experiment: cell death assay (trypan blue exclusion, ATP levels); type: cell-based, human; settings: 24 hours, control cells without inhibitor or pretreated with inhibitor
Jurkat cells = experiment: sodium influx, CoroNa Green Sodium indicator; type: cell-based; settings: 10-minute measurement period
Method: Sodium influx in Jurkat cells was measured by using CoroNa Green Sodium indicator. The fluorescence was quantified every 20-second interval for a 10-minute total measurement period.

[5] = 35 μM All-ala α-lactalbumin or 175 μM sodium oleate, FIG. 7A

`[Ba+2].[Cl-].[Cl-]` [BaCl2, barium chloride] was tested, and the “effect of channel blocker on K^+ flux in response to HAMLET” value [1] was “intermediate inhibition”, the “effect of ion channel inhibitor on HAMLET-induced change in cell morphology” value [2] was “maintained their normal morphology” and the “effect of inhibitor on HAMLET Ca^2+ fluxes” value (tumor cells) was “inhibited”. The “rescue from HAMLET-induced cell death” value [3] was “rescue effect” and the “cells died after HAMLET” value [4] was 13%.

In the case of `NC(N)=NC(=O)c1nc(Cl)c(N)nc1N` [amiloride, 3,5-diamino-6-chloro-N-(diaminomethylene)pyrazine-2-carboxamide], the “effect of channel blocker on K^+ flux in response to HAMLET” value [1] is reported as “intermediate inhibition”, the “effect of ion channel inhibitor on HAMLET-induced change in cell morphology” value [2] is reported as “maintained their normal morphology” and the “effect of inhibitor on HAMLET Ca^2+ fluxes” value (tumor cells) is reported as “inhibited”. For the same molecule, the “rescue from HAMLET-induced cell death” value [3] was “rescue effect” and the “cells died after HAMLET” value [4] was 8%.

With `CCCCCCCC/C=C\CCCCCCCC(=O)[O-].[Na+]` [oleate, sodium oleate] the “potassium channel activity (fluorescence signal)” value [1] was “potassium channels were activated by oleate alone, but at lower efficiency than HAMLET”, the “K^+ fluxes” value (tumor cells; [5]) was “triggered K^+ fluxes” and the “Na^+ or Ca^2+ fluxes” value (tumor cells; [5]) was “low”. The “sodium influx (fluorescence signal)” value (Jurkat cells) was “did not trigger a sodium flux”.

B1: HAMLET (protein, UniProt P00709 20-142, looked up)
Alpha-lactalbumin: KQFTKCELSQLLKDIDGYGGIALPELICTMFHTSGYDTQAIVENNESTEYGLFQISNKLWCKSSQVPQSRNICDISCDKFLDDDITDDIMCAKKILDIKGIDYWLAHKALCTEKLEQWLCEKL
modifications: oleic acid complex
With B1 the “potassium channel activity (fluorescence signal)” value [1] was “rapidly opened the K^+ channels; also recorded: triggers a rapid potassium flux”, the “cells died after HAMLET” value [4] was 44% and the “sodium influx (fluorescence signal)” value (Jurkat cells) was “immediate increase of fluorescence signal”.
